Results on 21 molecules are retold here after patent publication US10562909B2, “Fused quadracyclic compounds, compositions and uses thereof” (Tabomedex Biosciences, LLC, priority 2016, dated 2020).

Sequence of MAPKAPK2 (P49137 whole entry, species assumed): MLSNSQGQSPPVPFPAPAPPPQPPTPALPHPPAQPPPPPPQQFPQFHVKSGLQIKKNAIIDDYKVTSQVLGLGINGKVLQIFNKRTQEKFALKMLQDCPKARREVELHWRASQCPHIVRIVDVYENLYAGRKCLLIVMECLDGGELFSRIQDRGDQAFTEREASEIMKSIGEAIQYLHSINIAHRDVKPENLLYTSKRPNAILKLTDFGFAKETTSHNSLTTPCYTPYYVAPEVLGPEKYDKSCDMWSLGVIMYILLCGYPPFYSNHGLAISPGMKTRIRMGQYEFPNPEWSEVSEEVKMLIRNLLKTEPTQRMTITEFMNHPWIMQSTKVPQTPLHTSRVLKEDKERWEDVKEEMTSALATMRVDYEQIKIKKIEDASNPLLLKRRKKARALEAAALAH

The target in this assay is MAPKAPK2 (Homo sapiens, UniProt P49137). The experiment in a line: MK2 Enzymatic Assay. In kind it is biochemical. To be noted: 0.5 nM MAPKAPK2, 3 μM ATP, 2 μM Ser/Thr4 peptide, 23° C., values given as concentration bins. In short, it runs like this:
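MAPKAPK2 (2× stock 1 nM) and peptide substrate (2× 4 μM) were preincubated 20 min, then started with ATP (2× stock 6 μM) for 120 min. After 120 min development, coumarin/fluorescein emission ratio gave percent phosphorylation against 0% and 100% phosphopeptide controls.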
For orientation: IC50 means the point on the concentration scale where inhibition reaches its midpoint. Molecule `CN(C)C[C@@H]1CN(c2ccc3c(n2)Cn2cc(-c4ccc(C#N)cc4)cc2-c2nccn2-3)C[C@H]1O` [Compound 307, 4-(7-((3R,4S)-3-((dimethylamino)methyl)-4-hydroxypyrrolidin-1-yl)-9H-imidazo[2,1-c]pyrido[3,2-e]pyrrolo[1,2-a][1,4]diazepin-12-yl)benzonitrile] returned a half-maximal inhibitory concentration (IC50) below 50 nM.

`N#Cc1ccc(-c2cc3n(c2)Cc2cc(N4CC5(CCNCC5)C4)ccc2-n2nnnc2-3)cc1` [Compound 245, 4-(7-(2,7-diazaspiro[3.5]nonan-2-yl)-9H-benzo[e]pyrrolo[1,2-a]tetrazolo[5,1-c][1,4]diazepin-12-yl)benzonitrile]: the IC50 was 100 to 200 nM.

`CNC[C@H]1CN(c2ccc3c(c2)Cn2cc(-c4ccc(F)cc4)cc2-c2nccn2-3)C[C@@H]1O` [Compound 363, (3R,4S)-1-(12-(4-fluorophenyl)-9H-benzo[e]imidazo[2,1-c]pyrrolo[1,2-a][1,4]diazepin-7-yl)-4-((methylamino)methyl)pyrrolidin-3-ol] displayed an IC50 below 50 nM.

`N[C@H]1CN(c2ccc3c(c2)Cn2cc(-c4ccc(F)cc4)cc2-c2nccn2-3)C[C@@H]1CO` (relative stereo) [Compound 489, ((trans)-4-amino-1-(12-(4-fluorophenyl)-9H-benzo[e]imidazo[2,1-c]pyrrolo[1,2-a][1,4]diazepin-7-yl)pyrrolidin-3-yl)methanol] had an IC50 below 50 nM.

`N[C@@H]1CCCN(c2ccc3c(c2)Cn2cc(-c4ccc(F)cc4)cc2-c2nnnn2-3)C1` [Compound 389, (R)-1-(12-(4-fluorophenyl)-9H-benzo[e]pyrrolo[1,2-a]tetrazolo[5,1-c][1,4]diazepin-7-yl) piperidin-3-amine] came in with an IC50 below 50 nM.

With `N#Cc1ccc(-c2cc3n(c2Cl)Cc2cc(N4CC[C@H](CN)C4)ccc2-n2cnnc2-3)cc1` [Compound 171, (R)-4-(7-(3-(aminomethyl)pyrrolidin-1-yl)-11-chloro-9H-benzo[e]pyrrolo[1,2-a][1,2,4]tri-azolo[3,4-c][1,4]diazepin-12-yl)benzonitrile], the IC50 was 50 to 100 nM.

Turning to `CN(C)C[C@@H]1CN(c2ccc3c(c2)Cn2cc(-c4ccc(F)cc4)cc2-c2ncnn2-3)C[C@@H]1O` [Compound 416, (3R,4R)-4-((dimethylamino)methyl)-1-(12-(4-fluorophenyl)-9H-benzo[e]pyrrolo[1,2-a][1,2,4]triazolo[5,1-c][1,4]diazepin-7-yl)pyrrolidin-3-ol], the IC50 is below 50 nM.

The molecule `CN(C)[C@@H]1CN(c2ccc3c(c2)Cn2cc(-c4ccc(F)cc4)cc2-c2nccn2-3)C[C@H]1O` [Compound 351, (3R,4R)-4-(dimethylamino)-1-(12-(4-fluorophenyl)-9H-benzo[e]imidazo[2,1-c]pyrrolo[1,2-a] [1,4]diazepin-7-yl)pyrrolidin-3-ol] gave an IC50 below 50 nM.

As to `N#Cc1ccc(-c2cc3n(c2)Cc2cc(N4CC[C@@H](CN5CCC(O)CC5)C4)ccc2-n2cnnc2-3)cc1` [Compound 110, (S)-4-(7-(3-((4-hydroxypiperidin-1-yl)methyl)pyrrolidin-1-yl)-9H-benzo[e]pyrrolo[1,2-a] [1,2,4]triazolo[3,4-c][1,4]diazepin-12-yl)benzonitrile], the IC50 was below 50 nM.

`CNCCC1CCN(c2ccc3c(c2)Cn2cc(-c4ccc(F)cc4)cc2-c2nccn2-3)C1` (stereo not drawn) [Compound 487, 2-(1-(12-(4-fluorophenyl)-9H-benzo[e]imidazo[2,1-c]pyrrolo[1,2-a][1,4]diazepin-7-yl)pyrrolidin-3-yl)-N-methylethanamine] registered an IC50 below 50 nM.

With `CN(C)C[C@@H]1CCN(c2cc3c(cn2)-n2cnnc2-c2cc(-c4ccc(C#N)cc4)cn2C3)C1` [Compound 317, (S)-4-(7-(3-((dimethylamino)methyl)pyrrolidin-1-yl)-9H-pyrido[3,4-e]pyrrolo[1,2-a][1,2,4]triazolo[3,4-c][1,4]diazepin-12-yl)benzonitrile], the IC50 lay within 100 to 200 nM.

With `N#Cc1ccc(-c2cc3n(c2Cl)Cc2cc(N4CC[C@@H](CN)C4)ccc2-n2cnnc2-3)cc1` [Compound 169, (S)-4-(7-(3-(aminomethyl)pyrrolidin-1-yl)-11-chloro-9H-benzo[e]pyrrolo[1,2-a][1,2,4]tri-azolo[3,4-c][1,4]diazepin-12-yl)benzonitrile], the IC50 is below 50 nM.

In turn, `CN[C@H]1CCN(c2ccc3c(c2)Cn2cc(-c4ccc(F)cc4)cc2-c2ncnn2-3)C1` [Compound 410, (S)-1-(12-(4-fluorophenyl)-9H-benzo[e]pyrrolo[1,2-a][1,2,4]triazolo[5,1-c][1,4]diazepin-7-yl)-N-methylpyrrolidin-3-amine] yielded a half-inhibitory concentration (IC50) of 50 to 100 nM.

`CN(C)[C@@H]1CN(c2ccc3c(c2)Cn2cc(-c4ccc(F)cc4)cc2-c2nccn2-3)C[C@H]1CO` (relative stereo) [Compound 490, ((Trans)-4-(dimethylamino)-1-(12-(4-fluorophenyl)-9H-benzo[e]imidazo[2,1-c]pyrrolo[1,2-a][1,4]diazepin-7-yl)pyrrolidin-3-yl)methanol] registered a 50% inhibitory concentration (IC50) below 50 nM.

For `CN(C)[C@H]1CN(c2ccc3c(n2)Cn2cc(-c4ccc(F)cc4)cc2-c2nccn2-3)C[C@H]1O` [Compound 432, (3R,4S)-4-(dimethylamino)-1-(12-(4-fluorophenyl)-9H-imidazo[2,1-c]pyrido[3,2-e]pyrrolo[1,2-a][1,4]diazepin-7-yl)pyrrolidin-3-ol], the half-inhibitory concentration (IC50) lay within 100 to 200 nM.

As to `CN(C)C[C@H]1CN(c2ccc3c(c2)Cn2cc(-c4ccc(C#N)cc4)cc2-c2nccn2-3)C[C@H]1O` [Compound 128, 4-(7-((3S,4S)-3-((dimethylamino)methyl)-4-hydroxypyrrolidin-1-yl)-9H-benzo[e]imidazo[2,1-c]pyrrolo[1,2-a][1,4]diazepin-12-yl)benzonitrile], the 50% inhibitory concentration (IC50) was in the range of 50 to 100 nM.

Regarding `CN(C)CCC1CCN(c2ccc3c(c2)Cn2cc(-c4ccc(F)cc4)cc2-c2nccn2-3)C1` (stereo not drawn) [Compound 488, 2-(1-(12-(4-fluorophenyl)-9H-benzo[e]imidazo[2,1-c]pyrrolo[1,2-a][1,4]diazepin-7-yl)pyrrolidin-3-yl)-N,N-dimethylethanamine], the IC50 was below 50 nM.

Turning to `CN(C)[C@@H]1CCN(c2ccc3c(c2)Cn2cc(-c4ccc(F)cc4)cc2-c2nnnn2-3)C1` [Compound 406, (R)-1-(12-(4-fluorophenyl)-9H-benzo[e]pyrrolo[1,2-a]tetrazolo[5,1-c][1,4]diazepin-7-yl)-N,N-dimethylpyrrolidin-3-amine], the IC50 was below 50 nM.

`CN(C)C[C@@H]1CN(c2ccc3c(n2)Cn2cc(-c4ccc(F)cc4)cc2-c2nccn2-3)C[C@H]1O` [Compound 436, (3S,4R)-4-((dimethylamino)methyl)-1-(12-(4-fluorophenyl)-9H-imidazo[2,1-c]pyrido[3,2-e]pyrrolo[1,2-a][1,4]diazepin-7-yl)pyrrolidin-3-ol]: the IC50 is below 50 nM.

Turning to `CN(C)[C@H]1CN(c2ccc3c(c2)Cn2cc(-c4ccc(F)cc4)cc2-c2ncnn2-3)C[C@@H]1O` [Compound 418, (3S,4S)-4-(dimethylamino)-1-(12-(4-fluorophenyl)-9H-benzo[e]pyrrolo[1,2-a][1,2,4]triazolo[5,1-c][1,4]diazepin-7-yl)pyrrolidin-3-ol], the IC50 lay in the range of 100 to 200 nM.

Take `N[C@H]1CCCN(c2ccc3c(c2)Cn2cc(-c4ccc(F)cc4)cc2-c2nnnn2-3)C1` [Compound 390, (S)-1-(12-(4-fluorophenyl)-9H-benzo[e]pyrrolo[1,2-a]tetrazolo[5,1-c][1,4]diazepin-7-yl) piperidin-3-amine]: the IC50 was 50 to 100 nM.
